Data on one molecule can be found in article PMC10812467, “Peroxidasin Inhibition by Phloroglucinol and Other Peroxidase Inhibitors” (Antioxidants, 2023).

Holding throughout (assay type): biochemical
Assay [1] concerns the target T1, Human peroxidasin (PXDN) (Homo sapiens, UniProt Q92626).
T1 construct: the four immunoglobulin domains and the peroxidase domain (amino acid residue 246-1314); made in house; host or cells: transient transfection
T1 sequence (Q92626 246-1314): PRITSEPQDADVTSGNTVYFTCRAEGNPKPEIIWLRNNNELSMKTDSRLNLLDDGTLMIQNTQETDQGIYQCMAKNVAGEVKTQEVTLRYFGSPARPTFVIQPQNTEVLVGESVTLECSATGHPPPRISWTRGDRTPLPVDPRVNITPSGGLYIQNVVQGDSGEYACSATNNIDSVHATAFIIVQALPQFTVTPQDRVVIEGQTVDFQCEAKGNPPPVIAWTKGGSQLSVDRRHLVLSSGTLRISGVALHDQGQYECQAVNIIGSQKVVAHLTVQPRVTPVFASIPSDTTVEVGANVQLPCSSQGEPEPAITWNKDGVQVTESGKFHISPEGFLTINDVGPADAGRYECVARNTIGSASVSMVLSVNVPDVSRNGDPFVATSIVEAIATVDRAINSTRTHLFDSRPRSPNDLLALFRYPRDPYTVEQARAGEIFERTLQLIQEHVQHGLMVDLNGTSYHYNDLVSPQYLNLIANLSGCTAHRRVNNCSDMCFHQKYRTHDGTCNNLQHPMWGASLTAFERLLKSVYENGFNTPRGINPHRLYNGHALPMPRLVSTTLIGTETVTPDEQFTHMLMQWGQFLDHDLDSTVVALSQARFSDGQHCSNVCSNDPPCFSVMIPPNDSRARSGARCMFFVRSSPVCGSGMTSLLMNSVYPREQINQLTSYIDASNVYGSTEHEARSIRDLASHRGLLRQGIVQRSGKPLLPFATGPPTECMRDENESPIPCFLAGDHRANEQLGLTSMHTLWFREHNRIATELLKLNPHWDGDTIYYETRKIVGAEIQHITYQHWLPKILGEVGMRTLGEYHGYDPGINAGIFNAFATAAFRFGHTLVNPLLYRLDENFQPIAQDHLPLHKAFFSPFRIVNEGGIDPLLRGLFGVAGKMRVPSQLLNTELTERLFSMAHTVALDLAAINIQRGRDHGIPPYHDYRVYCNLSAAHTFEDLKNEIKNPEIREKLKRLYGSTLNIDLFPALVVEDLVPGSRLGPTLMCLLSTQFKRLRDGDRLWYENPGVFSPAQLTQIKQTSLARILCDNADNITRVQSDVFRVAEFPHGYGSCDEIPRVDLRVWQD
Briefly: Dansylglycine halogenation (bromination) activity assay. As to conditions: 24 μM inhibitor, 50 nM PXDN, 50 μM DG, 100 mM bromide, 200 μM hydrogen peroxide, pH 7.4. As for the experimental part:
(§1) A previously characterized truncated peroxidasin variant, formerly annotated as hsPxd01-con4 [46], consisting of the four immunoglobulin domains and the peroxidase domain (amino acid residue 246-1314; numbering refers to full length PXDN including the signal peptide as shown in Uniprot Q92626), was used for all experiments using PXDN protein. Cloning, transient transfection, expression and the quality control of the purified recombinant PXDN was performed routinely, as described previously. Molar concentrations are per heme and were determined using an extinction coefficient of 147,500 M^−1 cm^−1 for the heme Soret peak at 412 nm. For the conversion to mg, a molar mass of 140,000 g mol^−1 was used and calculated from the molar concentration per heme. For simplicity we will refer to this variant as peroxidasin (PXDN) throughout the manuscript.
Dansylglycine (DG) was made up fresh every day and kept in the dark at room temperature. […] We mixed 50 nM PXDN in 100 mM phosphate buffer pH 7.4 with 50 μM DG and 100 mM bromide, before the reaction was started by adding 200 μM of hydrogen peroxide to a final volume of 1.5 mL. Loss of fluorescence was monitored for 60 s using a F-7000 Hitachi (Methrom-Inula, Vienna) fluorometer (λex 340 nm, λem 550 nm). […] The loss of fluorescence was fitted linearly to determine the rate of reaction (min^−1). The effect of the inhibitors was expressed as % inhibition, relative to the rate of the halogenation activity of PXDN without an inhibitor. IC50 values were determined by varying inhibitor concentrations (0–48 μM).

Assay [2] deals with T1, Human peroxidasin (PXDN). The assay is described as follows: Amplex oxidation activity assay in the absence of bromide. As for the experimental part:
as §1
100 µL of 50 μM Amplex™ UltraRed and 20 μM hydrogen peroxide in 50 mM phosphate buffer pH 7.4 and the respective inhibitor at twice of its final concentration was added to a 96-well plate. […] The plate was incubated in the dark for 15 min at 37 °C before the fluorescence of resorufin, the resulting Amplex oxidation product, was detected using a SpectraMax iD3 fluorescent plate reader from Molecular Devices LLC, San Jose, CA 95134 (λex 544 nm, λem 590 nm, end point measurement). The same assay was also performed with 50 mM bromide present. To determine IC50 values, Amplex oxidation (measured as the end point as described above) was plotted versus the concentration of the inhibitor and expressed as % inhibition.

The target in assay [3] is T1, Human peroxidasin (PXDN). The assay is described as follows: Reversibility of inactivation of immobilized PXDN (wash, then Amplex assay). Conditions: 10 min, washed four times. As for the experimental part:
200 ng of PXDN in 50 μL PBS was added per well of a Corning high-binding ELISA microplate for 2 h at room temperature. After four PBS washes, the respective inhibitors were added at a final concentration of 20 μM in phosphate buffer pH 7.4, before 10 μM of hydrogen peroxide was added in a final volume of 50 μL. In a control experiment, no hydrogen peroxide was added. After 10 min of incubation, the plates were washed four times with PBS and activity was measured as previously described, by adding 50 μL/well of 50 μM Amplex™ UltraRed Reagent, 20 μM hydrogen peroxide and 50 mM bromide in 50 mM phosphate buffer pH 7.4. The plate was incubated for 30 min in the dark at 37 °C before fluorescence was measured (λex 544 nm, λem 590 nm) and expressed as % activity of the untreated control.

The target of the next assay is T2, PXDN Compound I (Homo sapiens, UniProt Q92626).
T2 construct: the four immunoglobulin domains and the peroxidase domain (amino acid residue 246-1314); made in house; host or cells: transient transfection
T2 sequence (Q92626 246-1314): T1 sequence (Q92626 246-1314)
Briefly: Sequential stopped-flow spectroscopy of PXDN Compound I with inhibitors. As to conditions: 1 μM PXDN Compound I, pH 7.4, 25 °C. As for the experimental part:
Pre-steady-state spectra were recorded with the stopped-flow apparatus SX.18MV (Applied Photophysics Ltd, Leatherhead, UK) connected to a diode array detector (DAD), with the first spectrum recorded 14 ms after the mixing of the reactants. Due to the inherent instability of Compound I of PXDN, the sequential mixing mode was used to generate Compound I. Equal volumes of 4 μM PXDN and 4 μM hydrogen peroxide were mixed in the aging loop. […] Interconversion of redox intermediates of PXDN was monitored for 60 s. […] All reactions were performed in 100 mM phosphate buffer, pH 7.4, and at 25 °C. Time traces (410 nm to monitor Compound I and ferric PXDN, 432 nm for Compound II and 550 and 590 nm to monitor Compound III [46]) were extracted from the time-resolved spectra.

The structures appear in SMILES notation.

What is called inhibition is the share of the control response that was lost under treatment. One may read the IC50 as the concentration needed to halve the response being measured. In turn, `Oc1cc(O)cc(O)c1` [Phloroglucinol, 1,3,5-Trihydroxybenzene] yielded an inhibition at 24 µM against Human peroxidasin (PXDN) [1] of 97 to 99%. Further, the IC50 against Human peroxidasin (PXDN) [2] is 0.137 µM. For the same molecule, the inhibition at 20 µM against Human peroxidasin (PXDN) [2] (20 μM inhibitor, without bromide) was above 95%; at Human peroxidasin (PXDN) [3] (immobilized PXDN, 20 μM inhibitor without or with 10 μM hydrogen peroxide, read-out: inhibition of PXDN remaining after washing), above 95%. Moreover, the “Irreversible Inhibition” value on Human peroxidasin (PXDN) [3] (20 μM inhibitor, then Amplex assay) was “yes”. At PXDN Compound I, the “Mechanism or Reaction Steady and Pre-Steady State Spectrophotometry” value is “Adduct formation or tight ligand binding”.
